Measurements from patent publication US20150265644A1, “THERAPEUTIC METHODS AND COMPOSITIONS FOR TREATING DIABETES UTILIZING DITERPENOID COMPOUNDS” (Orient Europharma Co., Ltd., priority 2014, published 2015).

Legend:
IL-6-treated C2C12 cells = experiment: Glycogen content assay in IL-6-induced insulin resistant C2C12 cells; assay type: cell-based; details: 30 minutes
Description: (§1) The C2C12 skeletal muscle cells were cultured in Dulbecco's modified Eagle's medium (DMEM; Gibco/Invitrogen, Carlsbad, Calif.), and the human hepatocellular carcinoma cell line, Hl-ep3B, was cultured in Roswell Park Memorial Institute medium 1640 (RPMI 1640 medium; Gibco/Invitrogen, Carlsbad, Calif.). Cells were cultured at 37° C. in the humidified incubator supplied with 5% CO2. Culture mediums were supplemented with 4.5 mgmL^−1 glucose, penicillin 100 IUmL^−1, streptomycin 100 μgmL^−1 and 10% fetal bovine serum (Gibco/Invitrogen, Carlsbad, Calif.). Only C2C12 cells were then switched to 2% horse serum for 3 days after reaching the 70% confluence. Myotubes formation was achieved after 4 days of incubation, and the cells were used for subsequent experiments. Culture mediums were replaced by serum free DMEM or RPMI for 24 h before experiments (see e.g., procedure described in Sultan et al., 2006).
(§2) C2C12 and Hep3B cells were treated with 1 nM insulin, 100 μM metformin, and the assigned concentration of borapetoside A for 30 minutes. To develop the insulin resistance state of cells, C2C12 cells were incubated with IL-6 at 20 ngmL^−1 for 1 hour. Later, the cells were treated with 1 nM insulin, 100 μM metformin, and the assigned concentration of borapetoside A for 30 minutes. After the assigned treatment, cells were washed twice with phosphate buffered saline (PBS). Glycogen content was measured as previously described, with some modifications (see e.g., Savage et al., 2008). The protein concentrations of the cell lysates were determined by using Pierce BCA Protein Assay Kit (Thermo-Scientific, Rockford, Ill.). The glycogen content of each sample was normalized by total protein.

[1] = tested on: human hepatocellular carcinoma cell line Hep3B; experiment: Glycogen content assay in Hep3B cells; assay type: cell-based; details: 30 minutes
Description: as §1, §2

[2] = Intraperitoneal glucose tolerance test; assay type: in vivo, mice
Description: (§3) After three days of acclimatization, the mice had free access to a standard rodent chow (normal mice), a standard rodent chow after single 250 mgkg^−1 streptozotocin (STZ) intraperitoneal injection (TIDM mice), and a fat-rich chow diet and fructose-sweetened water (T2DM mice) for 4 weeks. The induction of Type 1 DM was assessed and confirmed when the mice had plasma glucose levels ≧350 mgdL^−1, accompanied with polyuria, hyperphagia and decreased body weight. The induction Type 2 DM in the mice was assessed by measuring fasting plasma glucose levels and confirmed when plasma glucose level was ≧150 mgdL^−1 after the 4-week induction. The animals were assigned randomly into three groups, with seven animals in each group. In group I, the mice were treated with vehicle, 2% DMSO in normal saline, as the negative control. In group II, the mice were intraperitoneally treated with borapetoside A (0.1-10 mgkg^−1). In […], the mice received intraperitoneally metformin (300 mgkg^−1; Sigma Chemical Co., St. Louis, Mo., U.S.A.) or insulin (0.5 IUkg^−1; Insulin Actrapid® HM; Novo Nordisk, Denmark). In the acute study, mice under anesthesia received a single intraperitoneal administration of borapetoside A, negative control, or positive control. In the subacute study, mice received intraperitoneal administrations of borapetoside A, vehicle, or insulin twice a day for seven days.
(§4) Blood samples were collected from the orbital vascular plexus of the mice under anesthesia. Blood samples were then centrifuged at 13000 rpm for 5 min, and the plasma samples were collected and kept on ice prior to the assay. The plasma glucose concentration was measured by Glucose Kit Reagent (Biosystems S.A., Barcelona, Spain) following the manufacturer's instructions, and the insulin levels were estimated using mouse insulin ELISA kit (Mercodia AB, Uppsala, Sweden).
The mice were maintained under anesthesia throughout the procedure. Glucose (2.0 gkg^−1) was administered intraperitoneally. Blood samples were collected from the orbital vascular plexus at 0, 30, 60, 120 min. The concentrations of the plasma glucose were measured, and the values of AUC were calculated accordingly.

[3] = Plasma insulin level before and after treatment in mice; assay type: in vivo
Description: The 4-week-old male ICR mice were purchased from the Animal Center of the College of Medicine, National Taiwan University (Taipei, Taiwan) with delicate humane care. This animal study was conducted by following the University ethical guidelines and the ‘Guide for the Care and Use of Laboratory Animals’ published by the US National Institutes of Health (NIH publication no. 85-23, revised 1996). The animal experiments were approved by the Institutional Animal Care and Use Committee (IACUC) of the National Taiwan University (IACUC No. 20110073). Animals were housed in a room at the constant temperature, 22±1° C., with 12 hours light and dark cycles.
as §3, §4

C[C@@]12C[C@@H](c3ccoc3)OC(=O)[C@@H]1C[C@@H]1OC(=O)[C@@]3(O)[C@@H](O[C@@H]4O[C@H](CO)[C@@H](O)[C@H](O)[C@H]4O)CC[C@@H]2[C@@]13C [borapetoside A]
fold increase of glycogen content (IL-6-treated C2C12 cells; IL-6-treated C2C12, 10^−6 mol/L): 1.64±0.05 fold | fold increase of glycogen content (IL-6-treated C2C12 cells; IL-6-treated C2C12, 10^−7 mol/L): 1.38±0.06 fold | fold increase of glycogen content (IL-6-treated C2C12 cells; IL-6-treated C2C12, 10^−8 mol/L): 1.35±0.08 fold | fold increase of glycogen content ([1]; 10^−5 mol/L): 1.54±0.11 fold | fold increase of glycogen content ([1]; 10^−6 mol/L): 1.39±0.12 fold | fold increase of glycogen content ([1]; 10^−7 mol/L): 1.46±0.05 fold | increase of plasma glucose level at 30 min ([2]; 0.1, 1, and 10 mgkg^−1, compared to the vehicle group, normal and type 2 DM mice): significantly suppressed | area under the curve (AUC) of plasma glucose, % of vehicle control ([2]; normal mice, 0.1 mgkg^−1): 78.8±3.0% | area under the curve (AUC) of plasma glucose, % of vehicle control ([2]; normal mice, 1 mgkg^−1): 69.9±7.1% | area under the curve (AUC) of plasma glucose, % of vehicle control ([2]; normal mice, 10 mgkg^−1): 68.91±3.5% | area under the curve (AUC) of plasma glucose, % of vehicle control ([2]; type 2 DM bearing mice, 0.1 mgkg^−1): 74.9±4.5% | area under the curve (AUC) of plasma glucose, % of vehicle control ([2]; type 2 DM bearing mice, 1 mgkg^−1): 71.1±3.2% | area under the curve (AUC) of plasma glucose, % of vehicle control ([2]; type 2 DM bearing mice, 10 mgkg^−1): 68.9±1.9% | Plasma insulin ([3]; T1DM mice, 0.1 mg kg^−1, after-treatment): 22.7 ± 0.2 pmol/L | Plasma insulin ([3]; T1DM mice, 0.1 mg kg^−1, before-treatment): 22.9 ± 0.1 pmol/L | Plasma insulin ([3]; T1DM mice, 0.3 mg kg^−1, after-treatment): 22.7 ± 0.3 pmol/L | Plasma insulin ([3]; T1DM mice, 0.3 mg kg^−1, before-treatment): 22.9 ± 0.1 pmol/L | Plasma insulin ([3]; T1DM mice, 1 mg kg^−1, after-treatment): 23.0 ± 0.2 pmol/L | Plasma insulin ([3]; T1DM mice, 1 mg kg^−1, before-treatment): 23.1 ± 0.2 pmol/L | Plasma insulin ([3]; T1DM mice, 3 mg kg^−1, after-treatment): 23.0 ± 0.0 pmol/L | Plasma insulin ([3]; T1DM mice, 3 mg kg^−1, before-treatment): 23.1 ± 0.2 pmol/L | Plasma insulin ([3]; T1DM mice, 10 mg kg^−1, after-treatment): 23.0 ± 0.1 pmol/L | Plasma insulin ([3]; T1DM mice, 10 mg kg^−1, before-treatment): 23.1 ± 0.1 pmol/L | Plasma insulin ([3]; T2DM mice, 0.1 mg kg^−1, after-treatment): 134.5 ± 9.3 pmol/L | Plasma insulin ([3]; T2DM mice, 0.1 mg kg^−1, before-treatment): 140.5 ± 4.1 pmol/L | Plasma insulin ([3]; T2DM mice, 0.3 mg kg^−1, after-treatment): 149.0 ± 9.5 pmol/L | Plasma insulin ([3]; T2DM mice, 0.3 mg kg^−1, before-treatment): 133.0 ± 4.2 pmol/L | Plasma insulin ([3]; T2DM mice, 1 mg kg^−1, after-treatment): 123.7 ± 9.6 pmol/L | Plasma insulin ([3]; T2DM mice, 1 mg kg^−1, before-treatment): 126.8 ± 5.7 pmol/L | Plasma insulin ([3]; T2DM mice, 3 mg kg^−1, after-treatment): 184.3 ± 14.6 pmol/L | Plasma insulin ([3]; T2DM mice, 3 mg kg^−1, before-treatment): 138.3 ± 3.6 pmol/L | Plasma insulin ([3]; T2DM mice, 10 mg kg^−1, after-treatment): 205.3 ± 22.2 pmol/L | Plasma insulin ([3]; T2DM mice, 10 mg kg^−1, before-treatment): 134.9 ± 3.5 pmol/L | Plasma insulin ([3]; normal mice, 0.1 mg kg^−1, after-treatment): 68.3 ± 4.4 pmol/L | Plasma insulin ([3]; normal mice, 0.1 mg kg^−1, before-treatment): 61.0 ± 4.6 pmol/L | Plasma insulin ([3]; normal mice, 0.3 mg kg^−1, after-treatment): 129.4 ± 22.0 pmol/L | Plasma insulin ([3]; normal mice, 0.3 mg kg^−1, before-treatment): 63.4 ± 3.9 pmol/L | Plasma insulin ([3]; normal mice, 1 mg kg^−1, after-treatment): 118.8 ± 10.1 pmol/L | Plasma insulin ([3]; normal mice, 1 mg kg^−1, before-treatment): 66.1 ± 5.4 pmol/L | Plasma insulin ([3]; normal mice, 3 mg kg^−1, after-treatment): 121.2 ± 14.2 pmol/L | Plasma insulin ([3]; normal mice, 3 mg kg^−1, before-treatment): 64.4 ± 3.6 pmol/L | Plasma insulin ([3]; normal mice, 10 mg kg^−1, after-treatment): 108.2 ± 2.9 pmol/L | Plasma insulin ([3]; normal mice, 10 mg kg^−1, before-treatment): 68.9 ± 1.3 pmol/L
